# Data reported in patent US20210260008A1, “COMBINATION THERAPY FOR TREATING CANCER” (THE JOHNS HOPKINS UNIVERSITY, priority 2018, published 2021).
# Like-named read-outs stand apart in the source and are kept apart here.
# What was measured:
# [1] = tested on: immune cells in tumor associated ascites (tumor microenvironment); experiment: Flow cytometry of immune cell populations in tumor associated ascites of VDID8 mice; format: in vivo, mouse; settings: for Percentage of M1 macrophages (MHCII+ CD206−) / total numbers of lymphocytes in ascites: week 5; for T cell, NK cell, and IFNγ+ lymphocyte populations: week 5 post tumor injection; for MHC II positive (MHCII Hi, M1-like) macrophages: compared to vehicle; for total numbers of lymphocytes in ascites: compared to vehicle / single agents
# Procedure: Ascites tissue harvest and processing. When ascites fluid is collected from the mice, the cells obtained represent the tumor microenvironment and can be further analyzed to help illustrate the mixed population of cells surrounding the tumor. Ascites was collected, filtered, incubated in ACK buffer (Quality Biological) to lyse red blood cells, and washed. The mononuclear cells collected were then cultured for four hours in RPMI (Corning) with 10% FBS in the presence of phorbol 12-myristate 13-acetate (PMA) and ionomycin to stimulate cells, and brefeldin A and monensin (Invitrogen 00-4975-93) to cause aggregation of secreted proteins inside the cell.
# Flow cytometry. Cells were washed and blocked with FcR Blocking Reagent (Miltenyi Biotec 130-092-575) and stained for cell-surface markers including Live/Dead (eBioscience 65-0865-14), CD45 (BD Biosciences 563891), CD3 (BD Biosciences 560527), CD4 (BD Biosciences 563331), CD8 (BD Biosciences 563152), NK1.1 (BD Biosciences 562921), F4/80 (BioLegend 123113), CD11b (BioLegend 101222), MHC II (isotype control 400627; BioLegend 107619), CD206 (BioLegend 141708), CD11c (BD Biosciences 564079), Ly6C (BD Biosciences 562728), Ly6G (BD Biosciences 563005), CD80 (BD Biosciences 553769), and CD86 (BD Biosciences 558703). Cells were permeabilized and stained for intracellular IFNγ (isotype control 554686; BD Biosciences 554413). Flow cytometry acquisition was performed on an LSR II cytometer (BD Biosciences), and data were analyzed using FlowJo software version 10.2.
# Flow sorting. Lysed and processed bulk ascites cells were blocked with FcR Blocking Reagent (Miltenyi Biotec 130-092-575) and stained for cell-surface markers including Live/Dead (eBioscience 65-0865-14), CD45 (BD Biosciences 563891), F4/80 (BioLegend 123113), CD11b (BioLegend 101222), MHC II (isotype control 400627; BioLegend 107619), CD206 (BioLegend 141708), and CD11c (BD Biosciences 564079). Prepared cells were suspended in PBS and sorted immediately on a BSL-2 FACSAria II. M1 macrophages were sorted on a gate as follows: CD45+ L/D− F4\80+ CD11b+ MHC II+ CD206− CD11c−. M2 macrophages were sorted on a gate as follows: CD45+ L/D− F4\80+ CD11b+ MHC II− CD206+ CD11c−.
# VDID8 cells = experiment: HPLC analysis of polyamine levels in cultured, treated VDID8 cells; format: cell-based, mouse; settings: in vitro; 500 nM AZA 10 days, 5 mM DFMO 3 days
# Procedure: (§1) FIG. 6A-6B. DFMO treatment of VDID8 cells in vitro reduces putrescene and spermidine levels. FIG. 6A: VDID8 cells were cultured in 10% FBS RPMI+gentamicin for one week prior to beginning 10 day treatment. Cells were treated with 500 nM AZA/saline for 10 days and 5 mM DFMO/water for 3 days. AZA+DFMO cells were treated with 500 nM AZA for the first 7 days, and 500 nM AZA + 5 mM DFMO for the final 3 days of treatment. High-performance liquid chromatography (HPLC) analysis of polyamine levels in cultured, treated VDID8 cells are shown. n=3. FIG. 6B: Bulk ascites fluid was collected from individual mice treated with DFMO, AZA, or AZA+DFMO. Bulk ascites cells were lysed and washed and remaining cells were prepped for HPLC analysis of polyamine levels. n=4-10. All data were tested for a Gaussian distribution and found to be normal using Shapiro-Wilk test. Significance was determined using a one way ANOVA.
# (§2) Polyamines. Polyamines were analyzed via high-performance liquid chromatography (HPLC) as previously described (36).
# 2208L breast tumors = experiment: 2208L breast tumor mouse model
# Description: Significance determined using log-rank Mantel-Cox test.
# Tumor size as measured once weekly in mice bearing 2208L breast tumor xenografts (week 6 post tumor implant).
# Mature or activated dendritic cells in the tumor microenvironment of the 2208L breast cancer model, shown as a percentage of dendritic cells.
# [2] = tested on: VEGF-β-Defensin ID8 (VDID8) syngeneic mouse ovarian surface epithelial (MOSE) cells; experiment: VDID8 syngeneic ovarian cancer mouse model: tumor burden (ascites volume) and survival; settings: for median survival / overall survival / tumor burden (ascites volume): VDID8 mice; for median survival / overall survival: AZA 0.5 mg/kg i.p., 2% DFMO in water; for tumor burden (ascites volume): treated vs vehicle; for tumor burden (ascites volume) compared with combination therapy: second ascites drain, week 5 post tumor injection
# Procedure: Mice were injected i.p. with 250,000 VEGF-DEFB ID8 MOSE cells (VDID8). 0.5 mg/kg of AZA was given i.p. 5 days a week, every other week. 2% DFMO was provided in water bottles. Mice were treated throughout the duration of the experiment. Upon 25-30% weight gain, ascites fluid was drained from mice and processed for analysis of the tumor microenvironment. FIG. 1B: Tumor burden, represented by ascites volume, 5 weeks post tumor injection. Data is from the second ascites drain procedure, the first was 4 weeks post tumor injection. Representative data (mean +/−SEM shown). n=10; four biological replicates. Data were tested for a Gaussian distribution using Shapiro-Wilk test and found not to be normal. Significance was determined using Kruskal Wallis test; statistical outliers removed using Peirce's criterion. FIG. 1C: Representative survival curve (median survival in days); n=10; four biological replicates. Significance determined using log-rank Mantel-Cox test.
# Animals. Female C57BL/6NHsd wild-type (WT) mice (7-8 wk old) were purchased from Envigo International Holdings, Inc. (Indianapolis, Ind.). Mice were housed at the Johns Hopkins Kimmel Cancer Center Animal Resources Core and cared for in accordance with the policies of The Johns Hopkins University Animal Care and Use Committee and our approved animal protocol.
# Syngeneic mouse model. 250,000 VEGF-β-Defensin ID8 (VDID8) syngeneic mouse ovarian surface epithelial (MOSE) cells were injected intraperitoneally into wild-type (WT) C57BL/6 mice.
# Mice were treated with 0.5 mg/kg AZA/saline, Monday through Friday, every other week and continuous 2% DFMO in drinking water.
# Mice were treated IP with AZA (0.5 mg/kg) or saline vehicle, DFMO (2% in water), or combination AZA and DFMO beginning three days post tumor injection (FIG. 1A).
# bulk ascites cells = experiment: HPLC analysis of polyamine levels in bulk ascites cells from treated mice; format: in vivo, mouse; settings: bulk ascites cells from treated animals
# Procedure: as §1, §2
# [3] = cited from earlier work
# [4] = tested on: LPS-stimulated macrophages; settings: LPS-stimulated macrophages in vitro (ref. 48); cited from earlier work
Structure (SMILES),total macrophage populations in the tumor microenvironment ([1]; ascites),Percentage of M1 macrophages (MHCII+ CD206−) ([1]; ascites),"T cell, NK cell, and IFNγ+ lymphocyte populations ([1]; ascites)","MHC II positive (MHCII Hi, M1-like) macrophages [1]",total numbers of lymphocytes in ascites [1],putrescine and spermidine levels (VDID8 cells),mature or activated dendritic cells as a percentage of dendritic cells (2208L breast tumors; tumor microenvironment of 2208L model),tumor burden / tumor size (2208L breast tumors; weeks 3 through 6 post tumor implant surgery),median survival [2],overall survival [2],tumor burden (ascites volume) [2],tumor burden (ascites volume) compared with combination therapy [2],"polyamine levels (putrescine, spermidine, spermine) (bulk ascites cells)","solubility ([3]; acetone, ethanol and methyl ketone)",solubility ([3]; dimethylsulfoxide (DMSO)),"solubility ([3]; ethanol/water (50/50), propylene glycol and polyethylene glycol)","solubility ([3]; water, water-saturated octanol, 5% dextrose in water, N-methyl-2-pyrrolidone, normal saline and 5% Tween 80 in water)","tumor volume (2208L breast tumors; measured once weekly, week 6 post tumor implant)",NO production [4]
"Nc1ncn([C@@H]2O[C@H](CO)[C@@H](O)[C@H]2O)c(=O)n1 [AZA, 4-amino-1-β-D-ribofuranozyl-s-triazin-2(1H)-one]",consistently decreased,increased,significant increases,increased,significantly increased,stimulatory effect,increases activation,no impact on tumor size,approximately 44 days,significantly increased survival,decreased tumor burden,higher tumor burden,No significant changes,insoluble,soluble,slightly soluble,sparingly soluble,,
"NCCCC(N)(C(=O)O)C(F)F (centres unmarked) [DFMO, 2-(difluoromethyl)-2,5-diaminopentanoic acid]",,increased,significant increases,increased,significantly increased,significant decrease,,,approximately 44 days,significantly increased survival,decreased tumor burden,higher tumor burden,decreased (although not significantly),,,,,maintains low tumor volumes,potentiate NO production
